Legend:
Type in all cases: in vivo
[1] = system: Ipomoea hederacea (IPOHE); experiment: B1 Post-emergence efficacy Test 1; conditions: post-emergence application, 1000 g/ha, evaluated after 13 days
Procedure: (§1) Seeds of a variety of test species are sown in standard soil in pots:—Solanum nigrum (SOLNI), Amaranthus retoflexus (AMARE), Setaria faberi (SETFA), Alopecurus myosuroides (ALOMY), Echinochloa crus-galli (ECHCG), Ipomoea hederacea (IPOHE), Lolium perenne (LOLPE). After 8 days cultivation (post-emergence) under controlled conditions in a glasshouse (at 24/16° C., day/night; 14 hours light; 65% humidity), the plants are sprayed with an aqueous spray solution derived from the formulation of the technical active ingredient in acetone/water (50:50) solution containing 0.5% Tween 20 (polyoxyethylene sorbitan monolaurate, CAS RN 9005-64-5). Compounds are applied at 1000 g/ha. The test plants are then grown in a glasshouse under controlled conditions in a glasshouse (at 24/16° C., day/night; 14 hours light; 65% humidity) and watered twice daily. After 13 days, the test is evaluated for the percentage damage caused to the plant. The biological activities are assessed on a five point scale (5=80-100%; 4=60-79%; 3=40-59%; 2=20-39%; 1=0-19%). A blank value in the table is indicative that the compound was not tested on that species.

Lolium perenne (LOLPE) = experiment: B1 Post-emergence efficacy Test 1; conditions: post-emergence application, 1000 g/ha, evaluated after 13 days
Procedure: as §1

Setaria faberi (SETFA) = experiment: B1 Post-emergence efficacy Test 1; conditions: post-emergence application, 1000 g/ha, evaluated after 13 days
Procedure: as §1

Solanum nigrum (SOLNI) = experiment: B1 Post-emergence efficacy Test 1; conditions: post-emergence application, 1000 g/ha, evaluated after 13 days
Procedure: as §1

[2] = system: Amaranthus retoflexus (AMARE); experiment: B1 Post-emergence efficacy Test 1; conditions: post-emergence application, 1000 g/ha, evaluated after 13 days
Procedure: as §1

[3] = system: Echinochloa crus-galli (ECHCG); experiment: B1 Post-emergence efficacy Test 1; conditions: post-emergence application, 1000 g/ha, evaluated after 13 days
Procedure: as §1

[4] = system: warm season plant species; experiment: B2 Post-emergence efficacy Test 2, warm season plant species; conditions: 15 days after application, 0-100 scale, 0=no damage, 100=total kill; for Herbicidal activity, ABUTH: Abutilon theophrasti; for Herbicidal activity, AMARE: Amaranthus retroflexus; for Herbicidal activity, BIDPI: Bidens pilosa; for Herbicidal activity, BRAPL: Brachiaria plantaginea; for Herbicidal activity, DIGSA: Digitaria sanguinalis; for Herbicidal activity, ECHCG: Echinochloa crus galli; for Herbicidal activity, ELEIN: Eleisine indica; for Herbicidal activity, EPHHL: Euphorbia hetrophylla; for Herbicidal activity, GLXMA: Glycine max; for Herbicidal activity, IPOHE: Ipomoea hederacea; for Herbicidal activity, ORYSA: Orysa sativa; for Herbicidal activity, PANMI: Panicum miliaceum; for Herbicidal activity, SETFA: Setaria faberi; for Herbicidal activity, SIDSP: Sida spinosa; for Herbicidal activity, SORVU: Sorghum bicolour; for Herbicidal activity, XANST: Xanthium strumarium; for Herbicidal activity, ZEAMX: Zea mays
Procedure: Seeds of a variety of test species (see Table B1) were sown in standard soil in pots. After cultivation for 12 days (post-emergence) under controlled conditions in a glasshouse (at 24/18° C. or 20/16° C., at day/night; 16 hours light; 65% humidity), the plants were sprayed with an aqueous spray solution derived from the formulation of the technical active ingredient dissolved in IF50 (see Table B2 for composition) and adjuvant (Genapol XO80) was added to the spray solution at a rate of 0.2% v/v. [table] [table] After application, the test plants were grown in a glasshouse under controlled conditions (as above) and watered twice daily. Herbicidal activity was evaluated 15 days after application on a 0-100 scale. The results, where 0=no damage to test plant and 100=total kill of test plant are shown below in Tables 6 to 9.

With `Cc1nn(C)c(=O)c(-c2c(F)ccc(Cl)c2CCc2ccc(F)cc2)c1O` [Compound 1.048] the “percentage damage caused to the plant, five point scale, IPOHE” value [1] was 5 (5=80-100%), the “percentage damage caused to the plant, five point scale, LOLPE” value (Lolium perenne (LOLPE)) was 5 (5=80-100%) and the “percentage damage caused to the plant, five point scale, SETFA” value (Setaria faberi (SETFA)) was 5 (5=80-100%). For the same molecule, the “percentage damage caused to the plant, five point scale, SOLNI” value (Solanum nigrum (SOLNI)) was 5 (5=80-100%), the “percentage damage caused to the plant, five point scale, AMARE” value [2] was 5 (5=80-100%) and the “percentage damage caused to the plant, five point scale, ECHCG” value [3] was 5 (5=80-100%). For the same molecule, the “Herbicidal activity, ABUTH” value ([4]; 15 g/Ha) was 60, the “Herbicidal activity, ABUTH” value ([4]; 30 g/Ha) was 80 and the “Herbicidal activity, ABUTH” value ([4]; 60 g/Ha) was 90. For the same molecule, the “Herbicidal activity, ABUTH” value ([4]; 125 g/Ha) was 90, the “Herbicidal activity, ABUTH” value ([4]; 250 g/Ha) was 90 and the “Herbicidal activity, ABUTH” value ([4]; 500 g/Ha) was 100. The “Herbicidal activity, AMARE” value ([4]; 15 g/Ha) was 60, the “Herbicidal activity, AMARE” value ([4]; 30 g/Ha) was 80 and the “Herbicidal activity, AMARE” value ([4]; 60 g/Ha) was 90. For the same molecule, the “Herbicidal activity, AMARE” value ([4]; 125 g/Ha) was 90, the “Herbicidal activity, AMARE” value ([4]; 250 g/Ha) was 100 and the “Herbicidal activity, AMARE” value ([4]; 500 g/Ha) was 100. For the same molecule, the “Herbicidal activity, BIDPI” value ([4]; 15 g/Ha) was 70, the “Herbicidal activity, BIDPI” value ([4]; 30 g/Ha) was 70 and the “Herbicidal activity, BIDPI” value ([4]; 60 g/Ha) was 70. For the same molecule, the “Herbicidal activity, BIDPI” value ([4]; 125 g/Ha) was 70, the “Herbicidal activity, BIDPI” value ([4]; 250 g/Ha) was 100 and the “Herbicidal activity, BIDPI” value ([4]; 500 g/Ha) was 100. For the same molecule, the “Herbicidal activity, BRAPL” value ([4]; 15 g/Ha) was 20, the “Herbicidal activity, BRAPL” value ([4]; 30 g/Ha) was 60 and the “Herbicidal activity, BRAPL” value ([4]; 60 g/Ha) was 80. The “Herbicidal activity, BRAPL” value ([4]; 125 g/Ha) was 80, the “Herbicidal activity, BRAPL” value ([4]; 250 g/Ha) was 90 and the “Herbicidal activity, BRAPL” value ([4]; 500 g/Ha) was 100. The “Herbicidal activity, DIGSA” value ([4]; 15 g/Ha) was 0, the “Herbicidal activity, DIGSA” value ([4]; 30 g/Ha) was 10 and the “Herbicidal activity, DIGSA” value ([4]; 60 g/Ha) was 20. The “Herbicidal activity, DIGSA” value ([4]; 125 g/Ha) was 20, the “Herbicidal activity, DIGSA” value ([4]; 250 g/Ha) was 50 and the “Herbicidal activity, DIGSA” value ([4]; 500 g/Ha) was 70. The “Herbicidal activity, ECHCG” value ([4]; 15 g/Ha) was 60, the “Herbicidal activity, ECHCG” value ([4]; 30 g/Ha) was 80 and the “Herbicidal activity, ECHCG” value ([4]; 60 g/Ha) was 80. For the same molecule, the “Herbicidal activity, ECHCG” value ([4]; 125 g/Ha) was 90, the “Herbicidal activity, ECHCG” value ([4]; 250 g/Ha) was 90 and the “Herbicidal activity, ECHCG” value ([4]; 500 g/Ha) was 100. The “Herbicidal activity, ELEIN” value ([4]; 15 g/Ha) was 0, the “Herbicidal activity, ELEIN” value ([4]; 30 g/Ha) was 50 and the “Herbicidal activity, ELEIN” value ([4]; 60 g/Ha) was 60. The “Herbicidal activity, ELEIN” value ([4]; 125 g/Ha) was 60, the “Herbicidal activity, ELEIN” value ([4]; 250 g/Ha) was 80 and the “Herbicidal activity, ELEIN” value ([4]; 500 g/Ha) was 80. For the same molecule, the “Herbicidal activity, EPHHL” value ([4]; 15 g/Ha) was 50, the “Herbicidal activity, EPHHL” value ([4]; 30 g/Ha) was 70 and the “Herbicidal activity, EPHHL” value ([4]; 60 g/Ha) was 90. For the same molecule, the “Herbicidal activity, EPHHL” value ([4]; 125 g/Ha) was 90, the “Herbicidal activity, EPHHL” value ([4]; 250 g/Ha) was 100 and the “Herbicidal activity, EPHHL” value ([4]; 500 g/Ha) was 100. For the same molecule, the “Herbicidal activity, GLXMA” value ([4]; 15 g/Ha) was 70, the “Herbicidal activity, GLXMA” value ([4]; 30 g/Ha) was 80 and the “Herbicidal activity, GLXMA” value ([4]; 60 g/Ha) was 90. For the same molecule, the “Herbicidal activity, GLXMA” value ([4]; 125 g/Ha) was 90, the “Herbicidal activity, GLXMA” value ([4]; 250 g/Ha) was 90 and the “Herbicidal activity, GLXMA” value ([4]; 500 g/Ha) was 100. The “Herbicidal activity, IPOHE” value ([4]; 15 g/Ha) was 70, the “Herbicidal activity, IPOHE” value ([4]; 30 g/Ha) was 80 and the “Herbicidal activity, IPOHE” value ([4]; 60 g/Ha) was 100. The “Herbicidal activity, IPOHE” value ([4]; 125 g/Ha) was 100, the “Herbicidal activity, IPOHE” value ([4]; 250 g/Ha) was 100 and the “Herbicidal activity, IPOHE” value ([4]; 500 g/Ha) was 100. The “Herbicidal activity, ORYSA” value ([4]; 15 g/Ha) was 0, the “Herbicidal activity, ORYSA” value ([4]; 30 g/Ha) was 0 and the “Herbicidal activity, ORYSA” value ([4]; 60 g/Ha) was 0. The “Herbicidal activity, ORYSA” value ([4]; 125 g/Ha) was 0, the “Herbicidal activity, ORYSA” value ([4]; 250 g/Ha) was 10 and the “Herbicidal activity, ORYSA” value ([4]; 500 g/Ha) was 30. The “Herbicidal activity, PANMI” value ([4]; 15 g/Ha) was 0, the “Herbicidal activity, PANMI” value ([4]; 30 g/Ha) was 20 and the “Herbicidal activity, PANMI” value ([4]; 60 g/Ha) was 30. The “Herbicidal activity, PANMI” value ([4]; 125 g/Ha) was 80, the “Herbicidal activity, PANMI” value ([4]; 250 g/Ha) was 100 and the “Herbicidal activity, PANMI” value ([4]; 500 g/Ha) was 100. The “Herbicidal activity, SETFA” value ([4]; 15 g/Ha) was 0, the “Herbicidal activity, SETFA” value ([4]; 30 g/Ha) was 40 and the “Herbicidal activity, SETFA” value ([4]; 60 g/Ha) was 40. For the same molecule, the “Herbicidal activity, SETFA” value ([4]; 125 g/Ha) was 70, the “Herbicidal activity, SETFA” value ([4]; 250 g/Ha) was 80 and the “Herbicidal activity, SETFA” value ([4]; 500 g/Ha) was 100. The “Herbicidal activity, SIDSP” value ([4]; 15 g/Ha) was 80, the “Herbicidal activity, SIDSP” value ([4]; 30 g/Ha) was 80 and the “Herbicidal activity, SIDSP” value ([4]; 60 g/Ha) was 80. For the same molecule, the “Herbicidal activity, SIDSP” value ([4]; 125 g/Ha) was 90, the “Herbicidal activity, SIDSP” value ([4]; 250 g/Ha) was 90 and the “Herbicidal activity, SIDSP” value ([4]; 500 g/Ha) was 90. The “Herbicidal activity, SORVU” value ([4]; 15 g/Ha) was 0, the “Herbicidal activity, SORVU” value ([4]; 30 g/Ha) was 30 and the “Herbicidal activity, SORVU” value ([4]; 60 g/Ha) was 70. The “Herbicidal activity, SORVU” value ([4]; 125 g/Ha) was 70, the “Herbicidal activity, SORVU” value ([4]; 250 g/Ha) was 80 and the “Herbicidal activity, SORVU” value ([4]; 500 g/Ha) was 90. The “Herbicidal activity, XANST” value ([4]; 60 g/Ha) was 90, the “Herbicidal activity, XANST” value ([4]; 125 g/Ha) was 90 and the “Herbicidal activity, XANST” value ([4]; 250 g/Ha) was 90. The “Herbicidal activity, XANST” value ([4]; 500 g/Ha) was 100, the “Herbicidal activity, ZEAMX” value ([4]; 15 g/Ha) was 0 and the “Herbicidal activity, ZEAMX” value ([4]; 30 g/Ha) was 10. For the same molecule, the “Herbicidal activity, ZEAMX” value ([4]; 60 g/Ha) was 50, the “Herbicidal activity, ZEAMX” value ([4]; 125 g/Ha) was 50 and the “Herbicidal activity, ZEAMX” value ([4]; 250 g/Ha) was 70. The “Herbicidal activity, ZEAMX” value ([4]; 500 g/Ha) was 100.

From US12162840B2, “Herbicidal compositions” (SYNGENTA PARTICIPATIONS AG, priority 2018, dated 2024)
